Measurements published in patent publication US12365670B2, “GLP-IR agonists and uses thereof” (QILU REGOR THERAPEUTICS INC., priority 2018, dated 2025).

How the values were obtained:
GLP1R [1] = target: T1, GLP1R (Homo sapiens, UniProt P43220); assay: GLP-1R/β-Arrestin recruitment assay (PathHunter eXpress GLP1R CHO-K1 β-Arrestin GPCR Assay); assay type: cell-based; parameters: host or cells: PathHunter CHO-K1 GLP1R β-Arrestin cells (from the kit); conditions: averaged Bmax, Percentage of Control GLP-1 (7-37), top concentration 10 μM
Excerpt: GLP-1R agonist activity with respect to β-arrestin recruitment can be determined with a cell-based functional assay using PathHunter eXpress GLP1R CHO-K1 β-Arrestin GPCR Assay kit (DiscoverX Cat #93-0300E2CPOM).
The PathHunter β-Arrestin GPCR assay technology utilizes a β-galactosidase ([…]) enzyme that is split into two fragments, the smaller Enzyme Donor (ED) and the larger Enzyme Acceptor (EA). These fragments can be fused to two proteins that may interact with each other, such as EA-β-Arrestin and ED-GLP-1R. The fusions can be stably expressed in a test cell line, such as the PathHunter CHO-K1 GLP1R β-Arrestin cells described below. […]
In this experiment, PathHunter CHO-K1 GLP1R β-Arrestin cells from the assay kit were plated at a density of 1000 or 2000 cells/[…]/well in a 384-well white/clear bottom plates (Greiner Cat #781098). […] Cells were stored in a 37° C. incubator under 5% CO2 and kept for approximately 48 hours until ready to run the assay. […]
Following 90 min incubation, detection reagents were made up by combining 1 part Galacton Star Substrate with 5 parts Emerald II™ Solution, and 19 parts of PathHunter Cell Assay Buffer, respectively. […] Plates were then read on Envision for 0.1 sec/well.
EC50 determinations were made from agonist dose-response curves analyzed with a curve fitting program using a 4-parameter logistic dose response equation. […]

[2] = Monkey oral pharmacokinetic (PK) study; assay type: in vivo, Cynomolgus monkeys (Macaca fascicularis); conditions: for plasma concentration-time profile: PO, over about 24 hours after oral dosing, FIGS. 8A-8E; for AUC0-24 h (Arbitrary units) / Cmax (Arbitrary unit): oral
Description: Appropriate volumes of vehicles (e.g., 2% Tween 80 (v:v) and 0.5% MC (w:v) in saline or 0.5% MC (w:v) in water were then added into the mortar containing the ground compounds, and the mixture was then grinded with a pestle until a homogeneous paste was formed. Additional appropriate volumes of vehicles were added into the mortar containing each compound, and the mixture was grinded further with the pestle until a homogeneous suspension was obtained.
The suspension was then transferred into a glass bottle. The mortar and the pestle were rinsed with the vehicle until no compound was left in the mortar or on the pestle.
The rest of the vehicle was added to make up the final dosing volume of about 1 mg/mL or 2 mg/mL (i.e., final dosing volume of about 5 mL/kg), and the homogenous suspension was continuously stirred prior to and during the dosing.
Non-nave Cynomolgus male monkeys (n=3/test article; sourced from Hainan Jingang Biotech Co., Ltd., Nayang Xintan, Fucheng Town, Qiongshan District, Haikou City, Hainan Province, China); or non-naïve aged, obese, and diabetic male Macaca fascicularis monkeys (n=3/test article, Source: Kunming Biomed International Colony) were used in pre-clinical in vivo studies. All non-nave Cynomolgus male monkeys were approximately 3 to 5 years old, weighed about 2.5-5 kg, and were within ±20% of the average body weight. All non-nave aged, obese, and diabetic male Macaca fascicularis monkeys were approximately 12 to 20 years old, weighed about >8-12 kg.
All animals were fasted overnight before dosing, and the food were supplied approximately 4 hours post dose (with free access to water all the time).
Animals were restrained at designated time points for blood sampling. Approximately 500 μL of blood samples was taken via cephalic or saphenous vein into EDTA-K2 tubes. Blood samples were put on wet ice before centrifugation.
For oral administration (PO) of either Dose 1 or Dose 2: blood samples were collected at pre-dose, and at 15 min, 30 min, 1 hr, 2 hr, 4 hr, (6 hr for compounds 19 and 28 with cynomolgus monkeys only), 8 hr, 12 hr, and 24 hr post dose (i.e., 9 or 10 total time points for each compound at each dose).
The blood samples were centrifuged at approximately 2,000-4,000 rpm for about 10-15 minutes at 2-8° C., and each resulting plasma portion was then transferred into an individual tube.
LC-MS/MS methods were developed, and bioanalysis for the test articles in monkey plasma was performed according to the developed LC-MS/MS methods.
Undiluted plasma samples: An aliquot of 20-50 μL plasma sample was mixed with 200 μL of ACN or MeOH containing one of the internal standards (IS, e.g., Diclofenac or Terfenadine) The mixture was then vortexed for about 1-5 min, and centrifuged at about 4,000-5,800 rpm for about 10-15 min. An aliquot of 1 μL supernatant was used for LC-MS/MS analysis.
Plasma samples with 10-fold dilution: An aliquot of 2 μL plasma sample was first mixed with 18 μL of blank plasma, then 200 μL of ACN containing 100 ng/mL IS (e.g. Diclofenac) was added to the mixture. The mixture was then vortexed for about 10 min, and was centrifuged at about 5,800 rpm for about 10 min. An aliquot of 1 μL supernatant was used for LC-MS/MS analysis.
MS conditions: Positive ion, ESI, MRM detection with parent and daughter ions, internal standard Diclofenac. • Compound ID: Compounds 19, 28, 29, 225 or 418 (control) HPLC conditions Method 1: • Mobile Phase A: H2O-0.025% FA-1 mM NH4OAC • Mobile Phase B: MeOH-0.025% FA-1 mM NH4OAC
Pharmacokinetics parameters, including area under the curve (AUC0-t), maximum plasma concentration (Cmax), time to reach maximum plasma concentration (Tmax), oral bioavailability (F %), etc., were calculated using Phoenix software (Version 6.4) and non-compartment model.

GLP1R [3] = target: T1, GLP1R; assay: β-Arrestin-mediated GLP1R internalization assay (PathHunter engineered U2OS cells); assay type: cell-based; parameters: host or cells: PathHunter engineered U2OS cells; conditions: averaged Bmax, Percentage of Control GLP-1 (7-37), top concentration 10 μM
Excerpt: A similar assay can also be used to assess the extent of signal attenuation due to GLP-1R internalization (the β-Arrestin Internalization Assay). In this assay, activated GLP1R Internalization cells were engineered to co-express an untagged GLP1R, Enzyme Acceptor (EA) tagged β-Arrestin, and a ProLink™ (PK) tag localized to the endosomes. Activation of the GLP1R induces β-Arrestin recruitment, which leads to internalization of the Receptor/Arrestin-EA complex in PK-tagged endosomes. This forces complementation of the two β-galactosidase enzyme fragments (EA and PK) to form a functional enzyme that hydrolyzes substrate to generate a chemiluminescent signal. […]
Specifically, PathHunter engineered U2OS cells from the assay kit (Cat #93-0724E3CP0L) were plated at a density of 2000 cells/20 μL/well in a 384-well white/clear bottom plates (Greiner Cat #781098). […] Cells were stored in a 37° C. incubator and kept for approximately 48 hours until ready for the assay. […]
Following 180 min incubation, detection reagents were made up by combining 1 part Galacton Star Substrate with 5 parts Emerald II™ Solution, and 19 parts of PathHunter Cell Assay Buffer, respectively. […] Plates were then read on Envision for 0.1 sec/well.
EC50 determinations were made from agonist dose-response curves analyzed with a curve fitting program using a 4-parameter logistic dose response equation.

[4] = Dose 1, non-naive Cynomolgus male monkeys

T1 sequence (P43220 24-463): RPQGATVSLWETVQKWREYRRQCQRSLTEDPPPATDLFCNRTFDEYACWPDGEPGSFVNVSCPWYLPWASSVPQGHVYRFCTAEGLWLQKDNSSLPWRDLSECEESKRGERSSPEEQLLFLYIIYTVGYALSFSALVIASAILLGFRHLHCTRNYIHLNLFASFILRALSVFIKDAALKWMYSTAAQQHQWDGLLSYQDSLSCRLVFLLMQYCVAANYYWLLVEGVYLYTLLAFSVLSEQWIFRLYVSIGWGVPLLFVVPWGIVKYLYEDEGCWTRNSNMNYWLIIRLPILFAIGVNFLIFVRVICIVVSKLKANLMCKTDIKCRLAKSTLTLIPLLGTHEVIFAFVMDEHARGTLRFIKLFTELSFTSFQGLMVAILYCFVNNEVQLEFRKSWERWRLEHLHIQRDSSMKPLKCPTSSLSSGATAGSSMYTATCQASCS

Row | Compound | plasma concentration-time profile [2] | AUC0-24 h (Arbitrary units) ([2]; Dose 2, monkeys) | Cmax (Arbitrary unit) ([2]; Dose 2, monkeys) | other results
1 | O=C(O)c1ccc2nc(CN3CCN(c4cccc(NCc5ccc(Cl)cc5F)n4)CC3)n(C[C@@H]3CCO3)c2c1 [Compound 1, (S)-2-((4-(6-(4-chloro-2-fluorobenzylamino)pyridin-2-yl)piperazin-1-yl)methyl)-1-(oxetan-2-ylmethyl)-1 h-benzo[d]imidazole-6-carboxylic acid] |  |  |  | Bmax (POC) (GLP1R [1]): 2.80 POC
2 | N#Cc1ccc(COc2cccc(C3=CCN(Cc4nc5ccc(C(=O)O)cc5n4C[C@@H]4CCO4)CC3)n2)c(F)c1 [Compound 19, (S)-2-((4-(6-(4-cyano-2-fluorobenzyloxy)pyridin-2-yl)-5,6-dihydropyridin-1(2H)-yl)methyl)-1-(oxetan-2-ylmethyl)-1 h-benzo[d]imidazole-6-carboxylic acid] | sustained at a more constant level |  |  | AUC0-24 h (Arbitrary units) [2, 4]: 1130 Arbitrary units; Cmax (Arbitrary unit) [2, 4]: 125 Arbitrary unit
3 | O=C(O)c1ccc2nc(CN3CC=C(c4cccc(OCc5ccc(Cl)cc5F)c4)CC3)n(C[C@@H]3CCO3)c2c1 [Compound 28, (S)-2-((4-(3-((4-chloro-2-fluorobenzyl)oxy)phenyl)-3,6-dihydropyridin-1(2H)-yl)methyl)-1-(oxetan-2-ylmethyl)-1 h-benzo[d]imidazole-6-carboxylic acid] | sustained at a more constant level |  |  | AUC0-24 h (Arbitrary units) [2, 4]: 24900 Arbitrary units; Cmax (Arbitrary unit) [2, 4]: 3910 Arbitrary unit
4 | O=C(O)c1ccc2nc(CN3CC=C(c4ccc(F)c(OCc5ccc(Cl)cc5F)c4)CC3)n(C[C@@H]3CCO3)c2c1 [Compound 29, (S)-2-((4-(3-((4-chloro-2-fluorobenzyl)oxy)-4-fluorophenyl)-3,6-dihydropyridin-1(2H)-yl)methyl)-1-(oxetan-2-ylmethyl)-1 h-benzo[d]imidazole-6-carboxylic acid] | sustained at a more constant level | 21800 | 3380 | 
5 | O=C(O)c1ccc2nc(CN3CC=C(c4ccc(F)c(OCc5ccc(Cl)cc5F)c4)CC3)n(C[C@@H]3CCO3)c2n1 [Compound 236, (S)-2-((4-(3-((4-chloro-2-fluorobenzyl)oxy)-4-fluorophenyl)-5,6-dihydropyridin-1(2H)-yl)methyl)-3-(oxetan-2-ylmethyl)-3H-imidazo[4,5-b]pyridine-5-carboxylic acid] |  |  |  | Bmax (POC) (GLP1R [3]): 30.0 POC

Now from value to molecule, other results behind:

Row | plasma concentration-time profile [2] | AUC0-24 h (Arbitrary units) ([2]; Dose 2, monkeys) | Cmax (Arbitrary unit) ([2]; Dose 2, monkeys) | Compound | other results
6 | sustained at a more constant level | 1500 | 184 | N#Cc1ccc(COc2cccc(C3=CCN(Cc4nc5ccc(C(=O)O)nc5n4C[C@@H]4CCO4)CC3)n2)c(F)c1 [Compound 225, (S)-2-((6-((4-cyano-2-fluorobenzyl)oxy)-3′,6′-dihydro-[2,4′-bipyridin]-1′(2′H)-yl)methyl)-3-(oxetan-2-ylmethyl)-3H-imidazo[4,5-b]pyridine-5-carboxylic acid] | 
7 |  | 774 | 232 | N#Cc1ccc(COc2cccc(C3CCN(Cc4nc5ccc(C(=O)O)cc5n4C[C@@H]4CCO4)CC3)n2)c(F)c1 [Compound 418, reference compound] | drop in plasma concentration ([2]; over about 24 hours post oral dosing, Dose 2, FIG. 8F): about 10 fold
